Laboratory results reported in publication PMC12669672, “Structural insights into selective and dual antagonism of EP2 and EP4 prostaglandin receptors” (The EMBO Journal, 2025).
pIC50: −log10 of the molar value. Several values for one entry are separate records, joined by “and”; a condition that tells them apart may be missing. Equal values may be shown once. Read-outs that look alike come from different tables or passages of the source.

How the values were obtained:
Type in all cases: cell-based
[1] = biological target: T1, EP2-L301I (Homo sapiens, UniProt P43116, L301I); assay: GloSensor cAMP assay, antagonism of PGE2-induced cAMP, chimeric studies; conditions: single experiments 1st-3rd
T1 construct: The full-length EP2 or EP4 was cloned into the pcDNA3.1 vector; FLAG (N); expressed in transfected cells; host or cells: AD293 cells
T1 sequence (P43116 whole entry L301I): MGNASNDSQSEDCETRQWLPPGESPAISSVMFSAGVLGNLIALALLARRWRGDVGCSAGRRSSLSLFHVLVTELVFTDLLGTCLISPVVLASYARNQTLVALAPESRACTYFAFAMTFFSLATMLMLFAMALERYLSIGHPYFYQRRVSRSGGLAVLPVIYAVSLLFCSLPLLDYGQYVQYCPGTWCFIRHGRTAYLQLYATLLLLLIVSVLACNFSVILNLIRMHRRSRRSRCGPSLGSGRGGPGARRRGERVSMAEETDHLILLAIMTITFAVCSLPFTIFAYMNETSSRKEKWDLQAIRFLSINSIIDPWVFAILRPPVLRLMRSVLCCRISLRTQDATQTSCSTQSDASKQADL
Experimental: (§1) The full-length EP2 or EP4 was cloned into the pcDNA3.1 vector (Invitrogen), incorporating an N-terminal FLAG tag. AD293 cells were seeded in six-well plates containing DMEM supplemented with 10% dialyzed FBS 1 day prior to transfection. Following overnight growth, cells were transfected with a 1:1 ratio of receptor construct and GloSensor22F cAMP biosensor (Promega) plasmids.
(§2) Twenty-four hours post-transfection, the cells were transferred to CO2-independent media containing 2% GloSensor cAMP Reagent (Promega) and distributed into 384-well assay plates at a density of 4000 cells per well in 10 μL. […] The plates were then incubated at 37 °C for an additional hour before luminescence measurements were taken using an EnVision plate reader.
(§3) Data analysis was performed using GraphPad Prism software v8.0.1. A nonlinear regression analysis, employing a sigmoidal dose–response model, was conducted to determine the Emax values and half-maximum inhibitory concentrations (IC50) for each compound tested.

[2] = biological target: T2, EP2-M116L (Homo sapiens, UniProt P43116, M116L); assay: as above; conditions: single experiments 1st-3rd
T2 construct: The full-length EP2 or EP4 was cloned into the pcDNA3.1 vector; FLAG (N); expressed in transfected cells; host or cells: AD293 cells
T2 sequence (P43116 whole entry M116L): as the sequence (P43116 whole entry L301I) above, with M116L, I301L counted along it
Experimental: as §1, §2, §3

[3] = biological target: T3, EP2-I85V (Homo sapiens, UniProt P43116, I85V); assay: as above; conditions: single experiments 1st-3rd
T3 construct: The full-length EP2 or EP4 was cloned into the pcDNA3.1 vector; FLAG (N); expressed in transfected cells; host or cells: AD293 cells
T3 sequence (P43116 whole entry I85V): as the sequence (P43116 whole entry L301I) above, with I85V, I301L counted along it
Experimental: as §1, §2, §3

[4] = biological target: T4, constitutively active EP4 V320A (Homo sapiens, UniProt P35408, V320A); assay: GloSensor cAMP assay, inhibition of constitutive activity
T4 construct: The full-length EP2 or EP4 was cloned into the pcDNA3.1 vector (Invitrogen), incorporating an N-terminal FLAG tag; expressed in transfected cells; host or cells: AD293
T4 sequence (P35408 whole entry V320A): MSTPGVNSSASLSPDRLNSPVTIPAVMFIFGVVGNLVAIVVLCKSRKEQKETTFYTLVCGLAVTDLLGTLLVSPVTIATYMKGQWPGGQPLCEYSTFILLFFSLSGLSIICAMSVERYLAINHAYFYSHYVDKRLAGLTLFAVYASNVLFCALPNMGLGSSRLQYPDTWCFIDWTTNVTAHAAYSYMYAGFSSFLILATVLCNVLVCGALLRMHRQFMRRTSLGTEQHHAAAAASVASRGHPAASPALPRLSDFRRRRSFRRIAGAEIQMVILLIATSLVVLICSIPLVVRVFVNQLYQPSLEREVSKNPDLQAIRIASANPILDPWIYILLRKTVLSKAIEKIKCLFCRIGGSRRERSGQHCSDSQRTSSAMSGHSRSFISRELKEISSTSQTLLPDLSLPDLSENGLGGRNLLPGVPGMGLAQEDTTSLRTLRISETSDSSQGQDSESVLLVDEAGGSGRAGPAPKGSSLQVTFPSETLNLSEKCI
Experimental: as §1, §2, §3

[5] = biological target: T5, constitutively active EP2 S86A (Homo sapiens, UniProt P43116, S86A); assay: as above
T5 construct: The full-length EP2 or EP4 was cloned into the pcDNA3.1 vector; FLAG (N); expressed in transfected cells; host or cells: AD293 cells
T5 sequence (P43116 whole entry S86A): as the sequence (P43116 whole entry L301I) above, with S86A, I301L counted along it
Experimental: as §1, §2, §3

[6] = biological target: T6, constitutively active EP2 W186A (Homo sapiens, UniProt P43116, W186A); assay: as above
T6 construct: The full-length EP2 or EP4 was cloned into the pcDNA3.1 vector; FLAG (N); expressed in transfected cells; host or cells: AD293 cells
T6 sequence (P43116 whole entry W186A): as the sequence (P43116 whole entry L301I) above, with W186A, I301L counted along it
Experimental: as §1, §2, §3

[7] = biological target: T7, constitutively active EP2 M116A (Homo sapiens, UniProt P43116, M116A); assay: as above
T7 construct: The full-length EP2 or EP4 was cloned into the pcDNA3.1 vector; FLAG (N); expressed in transfected cells; host or cells: AD293 cells
T7 sequence (P43116 whole entry M116A): as the sequence (P43116 whole entry L301I) above, with M116A, I301L counted along it
Experimental: as §1, §2, §3

[8] = 1 h, ligand log([M]) -5, Fig. S7B, read-out: % cAMP activity (normalized to WT)
[9] = 1 h, ligand log([M]) -6, Fig. S7B, read-out: % cAMP activity (normalized to WT)
[10] = 1 h, ligand log([M]) -10, Fig. S7B, read-out: % cAMP activity (normalized to WT)
[11] = 1 h, ligand log([M]) -11, Fig. S7B, read-out: % cAMP activity (normalized to WT)
[12] = 1 h, ligand log([M]) -12, Fig. S7B, read-out: % cAMP activity (normalized to WT)
[13] = no PGE2, pIC50 mutant - pIC50 WT, mean

With `CCc1nnc(NS(=O)(=O)c2ccc(NC(=S)NC(=O)/C=C/c3ccc(F)cc3)cc2)s1` [TG6-129] the remaining activity at 10 µM [1, 8] was 16.7%, the remaining activity at 1 µM [1, 9] was 17.9% and the remaining activity at 0.1 µM ([1]; 1 h, ligand log([M]) -7, Fig. S7B, read-out: % cAMP activity (normalized to WT)) was 74.8%. For the same compound, the remaining activity at 0.0001 µM [1, 10] was 111%, the remaining activity at 10 pM [1, 11] was 123% and the remaining activity at 1 pM [1, 12] was 120%. For the same compound, the “cAMP activity (∆pIC50 from EP2 WT)” value ([1]; Appendix Fig. S7A) was -0.046 and -0.334 and -0.171, the remaining activity at 10 µM [2, 8] was 12.1% and the remaining activity at 0.0001 µM [2, 10] was 107%. For the same compound, the remaining activity at 10 pM [2, 11] was 124%, the remaining activity at 1 pM [2, 12] was 116% and the “cAMP activity (∆pIC50 from EP2 WT)” value ([2]; Appendix Fig. S7A) was -0.454 and -0.463 and -0.341. It also gave a remaining activity at 1 µM [3, 9] of 12.2%, a remaining activity at 0.0001 µM [3, 10] of 102% and a remaining activity at 10 pM [3, 11] of 108%. The “cAMP activity (∆pIC50 from EP2 WT)” value ([3]; Appendix Fig. S7A) was -0.555 and -0.639 and -0.556, the pIC50 [4] was 5.17 and the remaining activity at 100 µM ([4]; 1 h, TG6-129 log([M]) -4.00, EP4-V320A, read-out: % cAMP activity (normalized to WT)) was 8.24%. The remaining activity at 20 µM ([4]; 1 h, TG6-129 log([M]) -4.70, EP4-V320A, read-out: % cAMP activity (normalized to WT)) was 16%, the remaining activity at […] ([4]; 1 h, TG6-129 log([M]) -5.40, EP4-V320A, read-out: % cAMP activity (normalized to WT)) was 41.7% and the remaining activity at […] ([4]; 1 h, TG6-129 log([M]) -6.10, EP4-V320A, read-out: % cAMP activity (normalized to WT)) was 57.4%. It also gave a remaining activity at […] ([4]; 1 h, TG6-129 log([M]) -6.80, EP4-V320A, read-out: % cAMP activity (normalized to WT)) of 59.5%, a remaining activity at 0.0324 µM ([4]; 1 h, TG6-129 log([M]) -7.49, EP4-V320A, read-out: % cAMP activity (normalized to WT)) of 49.7% and a remaining activity at 0.00646 µM ([4]; 1 h, TG6-129 log([M]) -8.19, EP4-V320A, read-out: % cAMP activity (normalized to WT)) of 54.3%. The remaining activity at 0.00129 µM ([4]; 1 h, TG6-129 log([M]) -8.89, EP4-V320A, read-out: % cAMP activity (normalized to WT)) was 60.2%, the “TG6-129 cAMP activity (∆pIC50 from EP4 WT), Mean” value ([4]; V320A, Mean) was -0.014 and the “TG6-129 cAMP activity (∆pIC50 from EP4 WT)” value ([4]; V320A, single experiments 1st-3rd) was 0.016 and -0.105 and 0.048. The ΔpIC50 [4, 13] was -0.01 ± 0.04, the pIC50 [5] was 6.22 and the “TG6-129 cAMP activity (∆pIC50 from EP2 WT), Mean” value ([5]; S86A, Mean) was -0.670. For the same compound, the “TG6-129 cAMP activity (∆pIC50 from EP2 WT)” value ([5]; S86A, single experiments 1st-3rd) was -0.744 and -0.540 and -0.726, the ΔpIC50 [5, 13] was -0.67 ± 0.07 and the pIC50 [6] was 5.44. For the same compound, the remaining activity at 0.1 µM ([6]; 1 h, TG6-129 log([M]) -7, EP2-W186A, read-out: % cAMP activity (normalized to WT)) was 91.6%, the remaining activity at 0.0001 µM ([6]; 1 h, TG6-129 log([M]) -10, EP2-W186A, read-out: % cAMP activity (normalized to WT)) was 92.4% and the remaining activity at 10 pM ([6]; 1 h, TG6-129 log([M]) -11, EP2-W186A, read-out: % cAMP activity (normalized to WT)) was 99.9%. For the same compound, the remaining activity at 1 pM ([6]; 1 h, TG6-129 log([M]) -12, EP2-W186A, read-out: % cAMP activity (normalized to WT)) was 97.8%, the “TG6-129 cAMP activity (∆pIC50 from EP2 WT), Mean” value ([6]; W186A, Mean) was -1.465 and the ΔpIC50 [6, 13] was -1.47 ± 0.16. The pIC50 [7] was 6.31, the remaining activity at 1 µM ([7]; 1 h, TG6-129 log([M]) -6, EP2-M116A, read-out: % cAMP activity (normalized to WT)) was 94.8% and the “TG6-129 cAMP activity (∆pIC50 from EP2 WT), Mean” value ([7]; M116A, Mean) was -0.618. For the same compound, the “TG6-129 cAMP activity (∆pIC50 from EP2 WT)” value ([7]; M116A, single experiments 1st-3rd) was -0.597 and -0.614 and -0.642 and the ΔpIC50 [7, 13] was -0.62 ± 0.01.
